Measurements reported in ChEMBL document CHEMBL5104196, “Discovery of Novel, Potent, and Selective Small-Molecule Menin-Mixed Lineage Leukemia Interaction Inhibitors through Attempting Introduction of Hydrophilic Groups” (J Med Chem, 2022).
In brackets after ≈: the same amount, converted by molar mass. Activity calls are given as the source filed them. No cut-off for these calls is given here.

Experiments:
MV4-11 [1] = experiment: Antiproliferative activity against human MV4-11 cells harboring MLL-AF4 assessed as cell growth inhibition measured for 72 hrs by MTT assay; format: functional, cell-based; conditions: MV4-11, 72 h
HL-60 = experiment: Antiproliferative activity against human […] assessed as cell growth inhibition measured for 72 hrs by MTT assay; format: functional, cell-based; conditions: HL-60, 72 h
[2] = biological target: Menin/Histone-lysine N-methyltransferase MLL (Homo sapiens, UniProt O00255); experiment: Inhibition of Menin/fluorescein labeled MLL(4 to 43 residues) (unknown origin) protein protein interaction incubated for 1 hr by fluorescence polarization-based competitive binding assay
Chain of Menin/Histone-lysine N-methyltransferase MLL (O00255 whole entry, the tested form may be a part): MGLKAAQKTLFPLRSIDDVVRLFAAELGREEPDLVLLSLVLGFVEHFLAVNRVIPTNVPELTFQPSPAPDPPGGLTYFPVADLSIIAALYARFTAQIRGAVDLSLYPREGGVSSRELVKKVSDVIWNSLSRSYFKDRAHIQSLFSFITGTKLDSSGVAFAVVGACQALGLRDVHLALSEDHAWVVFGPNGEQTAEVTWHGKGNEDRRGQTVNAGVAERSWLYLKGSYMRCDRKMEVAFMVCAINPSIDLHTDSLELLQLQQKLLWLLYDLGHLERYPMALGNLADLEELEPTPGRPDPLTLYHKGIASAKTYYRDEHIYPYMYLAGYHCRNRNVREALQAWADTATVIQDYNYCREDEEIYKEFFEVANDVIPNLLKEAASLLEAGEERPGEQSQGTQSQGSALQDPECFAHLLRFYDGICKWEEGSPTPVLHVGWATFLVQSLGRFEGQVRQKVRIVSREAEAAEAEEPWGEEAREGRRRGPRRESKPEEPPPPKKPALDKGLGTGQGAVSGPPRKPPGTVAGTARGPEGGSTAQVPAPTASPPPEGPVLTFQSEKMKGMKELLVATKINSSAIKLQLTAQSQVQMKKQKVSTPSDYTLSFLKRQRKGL
Chain of Menin/Histone-lysine N-methyltransferase MLL (Q03164 1-2718 partner limits assumed): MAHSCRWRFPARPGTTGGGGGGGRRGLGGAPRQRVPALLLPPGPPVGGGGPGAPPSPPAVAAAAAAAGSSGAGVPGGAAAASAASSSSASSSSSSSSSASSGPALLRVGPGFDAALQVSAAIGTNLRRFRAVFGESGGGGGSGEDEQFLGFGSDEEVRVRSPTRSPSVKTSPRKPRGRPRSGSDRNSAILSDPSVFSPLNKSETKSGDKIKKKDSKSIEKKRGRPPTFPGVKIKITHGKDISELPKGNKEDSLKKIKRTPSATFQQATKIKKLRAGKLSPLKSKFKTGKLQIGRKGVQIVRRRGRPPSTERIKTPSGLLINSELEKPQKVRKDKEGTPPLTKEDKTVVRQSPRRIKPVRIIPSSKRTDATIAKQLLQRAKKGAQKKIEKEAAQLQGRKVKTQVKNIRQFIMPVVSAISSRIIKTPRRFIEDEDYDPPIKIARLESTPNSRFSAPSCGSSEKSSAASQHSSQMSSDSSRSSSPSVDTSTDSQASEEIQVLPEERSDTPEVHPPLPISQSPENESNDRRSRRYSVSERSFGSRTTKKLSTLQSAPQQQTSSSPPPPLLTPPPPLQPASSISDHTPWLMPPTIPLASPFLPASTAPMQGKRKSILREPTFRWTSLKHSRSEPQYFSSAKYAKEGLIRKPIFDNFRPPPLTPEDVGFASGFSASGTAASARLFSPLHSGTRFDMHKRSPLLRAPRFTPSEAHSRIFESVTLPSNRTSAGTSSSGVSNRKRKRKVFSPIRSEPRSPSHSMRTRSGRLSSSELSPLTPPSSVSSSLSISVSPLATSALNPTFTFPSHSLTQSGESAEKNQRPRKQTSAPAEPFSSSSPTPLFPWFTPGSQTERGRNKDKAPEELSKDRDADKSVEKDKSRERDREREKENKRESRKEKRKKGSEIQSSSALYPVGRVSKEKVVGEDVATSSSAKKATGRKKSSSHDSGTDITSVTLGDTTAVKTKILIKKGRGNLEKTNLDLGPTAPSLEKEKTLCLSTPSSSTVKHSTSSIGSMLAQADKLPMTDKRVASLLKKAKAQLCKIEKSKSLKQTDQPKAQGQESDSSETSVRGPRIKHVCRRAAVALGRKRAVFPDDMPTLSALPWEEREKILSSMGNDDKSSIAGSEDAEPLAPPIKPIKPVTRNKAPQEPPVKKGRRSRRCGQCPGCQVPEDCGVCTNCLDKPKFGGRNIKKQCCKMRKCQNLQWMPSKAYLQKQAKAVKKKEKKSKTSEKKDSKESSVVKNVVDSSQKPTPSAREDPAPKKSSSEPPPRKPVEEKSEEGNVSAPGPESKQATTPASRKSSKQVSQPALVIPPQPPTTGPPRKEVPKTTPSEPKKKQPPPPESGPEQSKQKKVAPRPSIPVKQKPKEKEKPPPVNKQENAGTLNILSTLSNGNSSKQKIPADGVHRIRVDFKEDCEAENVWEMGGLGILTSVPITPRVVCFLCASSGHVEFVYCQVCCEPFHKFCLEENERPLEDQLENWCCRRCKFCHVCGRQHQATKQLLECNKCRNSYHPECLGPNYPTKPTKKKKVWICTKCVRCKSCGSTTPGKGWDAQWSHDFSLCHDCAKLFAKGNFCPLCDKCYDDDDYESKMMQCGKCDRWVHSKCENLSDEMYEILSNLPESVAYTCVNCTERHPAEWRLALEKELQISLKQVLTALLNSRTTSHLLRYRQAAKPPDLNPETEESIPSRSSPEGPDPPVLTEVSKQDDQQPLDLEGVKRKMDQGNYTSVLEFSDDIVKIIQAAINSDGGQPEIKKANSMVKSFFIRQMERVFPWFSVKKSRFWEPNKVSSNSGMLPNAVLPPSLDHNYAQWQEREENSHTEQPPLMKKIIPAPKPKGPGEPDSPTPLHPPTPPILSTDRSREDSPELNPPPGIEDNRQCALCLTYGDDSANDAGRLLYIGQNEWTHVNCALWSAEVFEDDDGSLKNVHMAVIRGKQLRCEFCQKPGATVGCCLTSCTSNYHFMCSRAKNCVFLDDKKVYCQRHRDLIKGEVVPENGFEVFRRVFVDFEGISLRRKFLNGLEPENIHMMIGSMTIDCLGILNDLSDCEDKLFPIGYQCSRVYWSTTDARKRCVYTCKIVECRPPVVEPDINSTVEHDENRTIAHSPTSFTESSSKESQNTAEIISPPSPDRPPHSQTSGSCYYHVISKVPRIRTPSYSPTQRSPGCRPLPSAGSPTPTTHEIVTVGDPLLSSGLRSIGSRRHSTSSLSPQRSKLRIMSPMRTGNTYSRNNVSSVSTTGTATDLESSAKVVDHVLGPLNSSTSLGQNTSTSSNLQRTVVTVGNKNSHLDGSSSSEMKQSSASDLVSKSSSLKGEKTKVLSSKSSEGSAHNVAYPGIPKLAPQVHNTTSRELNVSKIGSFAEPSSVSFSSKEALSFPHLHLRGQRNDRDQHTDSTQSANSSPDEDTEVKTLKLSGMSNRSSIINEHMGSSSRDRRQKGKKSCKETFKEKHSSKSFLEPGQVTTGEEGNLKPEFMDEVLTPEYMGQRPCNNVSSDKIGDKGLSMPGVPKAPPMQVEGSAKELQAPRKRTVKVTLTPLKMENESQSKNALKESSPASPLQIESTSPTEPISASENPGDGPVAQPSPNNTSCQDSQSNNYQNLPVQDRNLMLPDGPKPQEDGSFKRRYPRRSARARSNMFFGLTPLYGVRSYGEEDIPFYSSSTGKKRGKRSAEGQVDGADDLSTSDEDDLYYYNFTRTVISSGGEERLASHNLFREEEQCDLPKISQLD
Chain of Menin/Histone-lysine N-methyltransferase MLL (Q03164 2719-3969 partner limits assumed): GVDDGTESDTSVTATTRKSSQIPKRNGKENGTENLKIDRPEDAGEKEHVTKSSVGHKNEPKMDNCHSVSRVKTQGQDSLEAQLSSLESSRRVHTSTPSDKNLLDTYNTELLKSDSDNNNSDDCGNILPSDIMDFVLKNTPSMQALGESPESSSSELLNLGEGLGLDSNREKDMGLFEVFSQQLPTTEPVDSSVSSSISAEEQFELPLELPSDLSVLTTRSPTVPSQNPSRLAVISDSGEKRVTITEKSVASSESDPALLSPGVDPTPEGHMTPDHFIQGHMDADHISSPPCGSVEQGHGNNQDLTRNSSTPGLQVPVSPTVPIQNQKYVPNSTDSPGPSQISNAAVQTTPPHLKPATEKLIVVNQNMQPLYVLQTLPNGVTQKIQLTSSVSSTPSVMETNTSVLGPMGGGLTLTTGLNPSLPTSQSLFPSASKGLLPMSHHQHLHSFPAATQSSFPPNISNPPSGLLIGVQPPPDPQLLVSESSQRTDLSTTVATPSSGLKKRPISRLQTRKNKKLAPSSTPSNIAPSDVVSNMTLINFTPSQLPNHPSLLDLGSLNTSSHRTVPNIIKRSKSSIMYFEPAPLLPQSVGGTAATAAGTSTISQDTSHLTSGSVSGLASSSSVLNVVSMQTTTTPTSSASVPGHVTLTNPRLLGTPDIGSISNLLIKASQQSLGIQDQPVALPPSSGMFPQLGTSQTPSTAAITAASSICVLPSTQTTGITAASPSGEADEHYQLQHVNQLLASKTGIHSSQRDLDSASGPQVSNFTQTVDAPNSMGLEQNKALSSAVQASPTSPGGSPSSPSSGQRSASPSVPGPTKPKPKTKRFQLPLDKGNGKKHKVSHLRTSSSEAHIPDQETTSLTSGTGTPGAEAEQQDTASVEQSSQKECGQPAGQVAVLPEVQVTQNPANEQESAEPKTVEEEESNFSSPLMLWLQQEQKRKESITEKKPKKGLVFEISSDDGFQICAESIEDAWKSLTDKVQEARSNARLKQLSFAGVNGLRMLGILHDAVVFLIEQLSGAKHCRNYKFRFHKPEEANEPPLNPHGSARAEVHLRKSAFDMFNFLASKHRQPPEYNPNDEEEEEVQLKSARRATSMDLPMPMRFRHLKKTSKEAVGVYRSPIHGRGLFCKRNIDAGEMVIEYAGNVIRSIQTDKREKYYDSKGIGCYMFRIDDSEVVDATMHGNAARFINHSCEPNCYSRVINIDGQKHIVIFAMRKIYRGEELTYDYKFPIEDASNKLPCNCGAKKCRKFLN

[3] = Solubility of compound in phosphate buffer at pH 7.4 by spectrophotometric analysis; format: physicochemical
MV4-11 [4] = experiment: Antiproliferative activity against human MV4-11 cells assessed as reduction in cell viability measured for 3 days followed by replacement with fresh medium of compound and measured after 72 hrs by cell counting assay; format: functional, cell-based; conditions: MV4-11, 72 h
MV4-11 [5] = experiment: Induction of cell differentiation in human MV4-11 cells assessed as increase in CD11b expression at 10 uM measured after 7 days by flow cytometric analysis; format: functional, cell-based; conditions: time 7.0 day
MV4-11 [6] = experiment: Reversible differentiation arrest in human MV4-11 cells at 0.1 to 10 uM measured after 7 days by flow cytometric analysis; format: functional, cell-based; conditions: dose 0.1-10 µM, time 7.0 day
MV4-11 [7] = experiment: Induction of apoptosis in human MV4-11 cells incubated for 24 hrs by annexinV/PI staining based flow cytometry analysis; format: functional, cell-based; conditions: dose 0.1-10 µM, DDE = dose-dependent effect
MV4-11 [8] = experiment: Antiproliferative activity against human MV4-11 cells assessed as reduction in cell viability measured for 3 days by cell counting assay; format: functional, cell-based; conditions: MV4-11, 72 h

| Compound | IC50 (MV4-11 [1]) | IC50 (HL-60) | IC50 [2] | solubility [3] | IC50 (MV4-11 [4]) | Activity (MV4-11 [5]) | Activity (MV4-11 [6]) | Activity (MV4-11 [7]) | IC50 (MV4-11 [8]) |
| --- | --- | --- | --- | --- | --- | --- | --- | --- | --- |
| CC(C)Nc1cc2c(NC3CCN(CC4CN(c5ccc(C#N)cc5)C4)CC3)ncnc2cn1 | > 10 µM | > 10 µM | 0.53 µM |  |  |  |  |  |  |
| N#Cc1ccc(N2CC(CN3CCC(Nc4ncnc5ccc(Br)cc45)CC3)C2)cc1 | > 10 µM | > 10 µM | > 10 µM |  |  |  |  |  |  |
| CC(C)(C)OC(=O)N1CC(S(=O)(=O)c2ccc(N3CC(CN4CCC(Nc5ncnc6ccc(Cl)nc56)CC4)C3)cc2)C1 | 2.3 µM | > 10 µM | 0.12 µM | < 0.6 µg/mL |  |  |  |  |  |
| N#Cc1ccc(N2CC(CN3CCC(Nc4ncnc5ccc(NCCN)nc45)CC3)C2)cc1 | 9.8 µM | > 10 µM | 0.68 µM |  |  |  |  |  |  |
| CC(C)CNc1cc2c(NC3CCN(CC4CN(c5ccc(C#N)cc5)C4)CC3)ncnc2cn1 | > 10 µM | > 10 µM | 1.97 µM |  |  |  |  |  |  |
| O=S(=O)(c1ccncc1)c1ccc(N2CC(CN3CCC(Nc4ncnc5ccc(Cl)nc45)CC3)C2)cc1 | 2 µM | 8.8 µM | 0.03 µM | 10 µg/mL (≈ 18.2 µM) |  |  |  |  |  |
| N#Cc1ccc(N2CC(CN3CCC(Nc4ncnc5ccc(OCC(F)(F)F)nc45)CC3)C2)cc1 | 5.6 µM | > 10 µM | > 10 µM |  |  |  |  |  |  |
| CN(C)CCOc1ccc2ncnc(NC3CCN(CC4CN(c5ccc(S(=O)(=O)C6CN(C(=O)OC(C)(C)C)C6)cc5)C4)CC3)c2n1 | 2 µM | > 10 µM | 0.19 µM | 69.5 µg/mL (≈ 102 µM) |  |  |  |  |  |
| N#Cc1ccc(N2CC(CN3CCC(Nc4ncnc5cnc(OCC(F)(F)F)cc45)CC3)C2)cc1 | > 10 µM | > 10 µM | 0.69 µM |  |  |  |  |  |  |
| COC(CNc1ccc2ncnc(NC3CCN(CC4CN(c5ccc(C#N)cc5)C4)CC3)c2n1)OC | > 10 µM | > 10 µM | > 10 µM |  |  |  |  |  |  |
| N#Cc1ccc(N2CC(CN3CCC(Nc4ncnc5ccc(N6CCNCC6)nc45)CC3)C2)cc1 | 2.2 µM | > 10 µM | 0.18 µM |  |  |  |  |  |  |
| N#Cc1ccc(N2CC(CN3CCC(Nc4ncnc5cnc(NC6CCCC6)cc45)CC3)C2)cc1 | > 10 µM | > 10 µM | 0.06 µM |  |  |  |  |  |  |
| CN1CCN(c2ccc3ncnc(NC4CCN(CC5CN(c6ccc(C#N)cc6)C5)CC4)c3n2)CC1 | 5.6 µM | 10 µM | 0.07 µM |  |  |  |  |  |  |
| CN(C)CCN(C)C1CCN(c2cc3c(NC4CCN(CC5CN(c6ccc(C#N)cc6)C5)CC4)ncnc3cn2)CC1 | 3.5 µM | > 10 µM | 0.29 µM |  |  |  |  |  |  |
| N#Cc1ccc(N2CC(CN3CCC(Nc4ncnc5cnc(Cl)cc45)CC3)C2)cc1 | > 10 µM | > 10 µM | > 10 µM |  |  |  |  |  |  |
| CN(C)C1CCN(c2ccc3ncnc(NC4CCN(CC5CN(c6ccc(C#N)cc6)C5)CC4)c3n2)CC1 | 9.8 µM | 10.2 µM | 0.13 µM |  |  |  |  |  |  |
| CCNCCNc1ccc2ncnc(NC3CCN(CC4CN(c5ccc(C#N)cc5)C4)CC3)c2n1 | > 10 µM | > 10 µM | > 10 µM |  |  |  |  |  |  |
| CN1CCN(c2cc3c(NC4CCN(CC5CN(c6ccc(C#N)cc6)C5)CC4)ncnc3cn2)CC1 | 6.7 µM | > 10 µM | > 10 µM |  |  |  |  |  |  |
| CN(C)CCN(C)c1ccc2ncnc(NC3CCN(CC4CN(c5ccc(C#N)cc5)C4)CC3)c2n1 | 3.2 µM | > 10 µM | 0.26 µM |  |  |  |  |  |  |

| Compound | IC50 (MV4-11 [1]) | IC50 (HL-60) | IC50 [2] | solubility [3] | IC50 (MV4-11 [4]) | Activity (MV4-11 [5]) | Activity (MV4-11 [6]) | Activity (MV4-11 [7]) | IC50 (MV4-11 [8]) |
| --- | --- | --- | --- | --- | --- | --- | --- | --- | --- |
| CN(C)CCOc1ccc2ncnc(NC3CCN(CC4CN(c5ccc(C#N)cc5)C4)CC3)c2n1 | 1.5 µM | > 10 µM | 0.06 µM | 314 µg/mL (≈ 645 µM) |  |  |  |  |  |
| N#Cc1ccc(N2CC(CN3CCC(Nc4ncnc5ccc(CC(F)(F)F)cc45)CC3)C2)cc1 | > 10 µM | > 10 µM | > 10 µM |  |  |  |  |  |  |
| CCN(CC)CCNc1ccc2ncnc(NC3CCN(CC4CN(c5ccc(C#N)cc5)C4)CC3)c2n1 | 4.2 µM | 9.5 µM | 0.82 µM |  |  |  |  |  |  |
| O=S(=O)(c1ccc(N2CC(CN3CCC(Nc4ncnc5ccc(Cl)nc45)CC3)C2)cc1)c1ccccn1 | 2.5 µM | > 10 µM | 0.06 µM |  |  |  |  |  |  |
| CN(C)CCNc1ccc2ncnc(NC3CCN(CC4CN(c5ccc(C#N)cc5)C4)CC3)c2n1 | 4.4 µM | > 10 µM | 0.97 µM |  |  |  |  |  |  |
| N#Cc1ccc(N2CC(CN3CCC(Nc4ncnc5ccc(NCCO)nc45)CC3)C2)cc1 | > 10 µM | > 10 µM | > 10 µM |  |  |  |  |  |  |
| CCCc1cc2c(N3CCN(C4=NCC(C)(C)S4)CC3)ncnc2s1 | 9.2 µM | > 10 µM |  |  | 7.62 µM | Active | Active | Dde | 8.52 µM |
| N#Cc1ccc(N2CC(CN3CCC(Nc4ncnc5cnc(N6CCOCC6)cc45)CC3)C2)cc1 | > 10 µM | > 10 µM | > 10 µM |  |  |  |  |  |  |
| O=S(=O)(c1ccncc1)c1ccc(N2CC(CN3CCC(Nc4ncnc5cnc(Cl)cc45)CC3)C2)cc1 | 9 µM | > 10 µM | > 10 µM |  |  |  |  |  |  |
| CN(C)C1CCN(c2cc3c(NC4CCN(CC5CN(c6ccc(C#N)cc6)C5)CC4)ncnc3cn2)CC1 | 3 µM | > 10 µM | > 10 µM |  |  |  |  |  |  |
| CC(C)(C)OC(=O)N1CC(S(=O)(=O)c2ccc(N3CC(CN4CCC(Nc5ncnc6cnc(Cl)cc56)CC4)C3)cc2)C1 | > 10 µM | > 10 µM | > 10 µM |  |  |  |  |  |  |
| N#Cc1ccc(N2CC(CN3CCC(Nc4ncnc5cnc(NC6CC6)cc45)CC3)C2)cc1 | > 10 µM | > 10 µM | > 10 µM |  |  |  |  |  |  |
| CN(C)CCOc1ccc2ncnc(NC3CCN(CC4CN(c5ccc(S(=O)(=O)c6ccncc6)cc5)C4)CC3)c2n1 | 1.5 µM | > 10 µM | 0.01 µM | 153 µg/mL (≈ 254 µM) |  |  |  |  |  |
| O=S(=O)(c1ccc(N2CC(CN3CCC(Nc4ncnc5ccc(Cl)nc45)CC3)C2)cc1)C1CC1 | 6.6 µM | > 10 µM | 0.09 µM | 15.9 µg/mL (≈ 31 µM) |  |  |  |  |  |
| N#Cc1ccc(N2CC(CN3CCC(Nc4ncnc5cnc(NCC6CC6)cc45)CC3)C2)cc1 | > 10 µM | > 10 µM | > 10 µM |  |  |  |  |  |  |
| N#Cc1ccc(N2CC(CN3CCC(Nc4ncnc5cnc(N6CCCCC6)cc45)CC3)C2)cc1 | > 10 µM | > 10 µM | 0.59 µM |  |  |  |  |  |  |
| N#Cc1ccc(N2CC(CN3CCC(Nc4ncnc5cnc(N6CCCC6)cc45)CC3)C2)cc1 | 6.5 µM | > 10 µM | > 10 µM |  |  |  |  |  |  |
| N#Cc1ccc(N2CC(CN3CCC(Nc4ncnc5ccc(Cl)nc45)CC3)C2)cc1 | > 10 µM | > 10 µM | > 10 µM | < 0.4 µg/mL |  |  |  |  |  |
